Laboratory results: the NIST ThermoML archive (doi:10.1021/je5001796)

Experiment: xn = mol fraction of the nth substance listed
Settings: 101 kPa, Liquid, Vibrating tube method, x2 = 0.3333

NC(N)=O [urea] + C[N+](C)(C)CCO.[Cl-]
Settings	mass density [kg/m3]
293.15 K	1200.1
303.15 K	1194.5
313.15 K	1188.7
323.15 K	1183.1
333.15 K	1177.3
343.15 K	1170.8
353.15 K	1163.5
363.15 K	1155.4
